Reference: PMC9120017, “Inhibition mechanism of the chloride channel TMEM16A by the pore blocker 1PBC” (Nature Communications, 2022)

Molecular target: T1, mouse TMEM16F (Mus musculus, UniProt Q6P9J9)
T1 construct: expressed in transfected cells; host or cells: HEK293T
T1 sequence (Q6P9J9 1-911): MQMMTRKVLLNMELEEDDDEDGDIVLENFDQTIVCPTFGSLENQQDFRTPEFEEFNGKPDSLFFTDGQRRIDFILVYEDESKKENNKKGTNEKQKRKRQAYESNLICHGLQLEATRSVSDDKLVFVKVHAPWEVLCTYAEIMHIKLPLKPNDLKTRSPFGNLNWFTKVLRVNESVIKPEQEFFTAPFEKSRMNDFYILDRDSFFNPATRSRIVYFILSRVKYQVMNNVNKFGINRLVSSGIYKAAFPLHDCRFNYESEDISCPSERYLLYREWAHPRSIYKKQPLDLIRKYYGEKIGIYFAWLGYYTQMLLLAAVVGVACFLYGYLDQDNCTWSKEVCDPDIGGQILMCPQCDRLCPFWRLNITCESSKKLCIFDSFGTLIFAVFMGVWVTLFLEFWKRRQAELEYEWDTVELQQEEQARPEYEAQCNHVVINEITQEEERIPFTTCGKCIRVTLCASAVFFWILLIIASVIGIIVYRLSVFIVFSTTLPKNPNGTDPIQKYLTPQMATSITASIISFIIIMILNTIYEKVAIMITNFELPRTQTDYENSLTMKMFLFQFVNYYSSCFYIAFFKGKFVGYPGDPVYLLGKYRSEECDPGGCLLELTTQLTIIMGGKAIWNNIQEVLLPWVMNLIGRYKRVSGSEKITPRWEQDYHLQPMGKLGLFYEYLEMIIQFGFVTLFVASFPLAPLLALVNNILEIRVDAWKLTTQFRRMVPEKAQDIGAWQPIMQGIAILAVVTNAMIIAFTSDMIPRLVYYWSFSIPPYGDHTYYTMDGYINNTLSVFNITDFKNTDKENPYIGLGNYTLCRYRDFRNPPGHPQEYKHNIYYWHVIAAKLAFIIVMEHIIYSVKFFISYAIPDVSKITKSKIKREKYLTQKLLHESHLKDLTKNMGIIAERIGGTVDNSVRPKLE
Experiment: Inside-out patch recording of 1PBC block, TMEM16F
Format: cell-based
Conditions: 300 µM Ca2+
Procedure: HEK293T cells (ATCC CRL-1573) were maintained in Dulbecco’s modified Eagle’s medium (DMEM; Sigma-Aldrich) supplemented with 10 U ml^−1 penicillin, 0.1 mg ml^−1 streptomycin (Sigma-Aldrich), 2 mM L-glutamine (Sigma-Aldrich), and 10% FBS (Sigma-Aldrich) in a humidified atmosphere containing 5% CO2 at 37 °C. HEK293S GnTI^− cells (ATCC CRL-3022) were maintained in HyClone HyCell TransFx-H medium (GE Healthcare) supplemented with 10 U ml^−1 penicillin, 0.1 mg ml^−1 streptomycin, 4 mM L-glutamine, 0.15% poloxamer 188 (Sigma-Aldrich), and 1% FBS in an atmosphere containing 5% CO2 at 185 rpm at 37 °C. The ac splice variant of mouse TMEM16A (UniProt ID: Q8BHY3), mouse TMEM16B (UniProt ID: Q8CFW1), or mouse TMEM16F (UniProt ID: Q6P9J9) bearing a 3C cleavage site, a Venus YFP, a Myc tag, and a Streptavidin-binding peptide (SBP) downstream of the open reading frame in a modified pcDNA3.1 vector (Invitrogen) were used as described previously[21],[31]. Mutations were introduced using a modified QuikChange method[58] and were verified by sequencing.
HEK293T cells were transfected with 3–4 μg DNA per 6 cm Petri dish using the calcium phosphate co-precipitation method and were used within 24–96 h after transfection. Recordings were performed on inside-out patches excised from HEK293T cells expressing the construct of interest. Patch pipettes were pulled from borosilicate glass capillaries (O.D. 1.5 mm, I.D. 0.86 mm, Sutter Instrument) and were fire-polished with a microforge (Narishige) before use. Pipette resistance was typically 3–8 MΩ when filled with the recording solutions detailed below. Seal resistance was typically 4 GΩ or higher. Voltage-clamp recordings were made using Axopatch 200B, Digidata 1550, and Clampex 10.7 (Molecular Devices). Analog signals were filtered with the in-built 4-pole Bessel filter at 10 kHz and were digitized at 20 kHz. Solution exchange was achieved using a gravity-fed system through a theta glass pipette mounted on an ultra-fast piezo-driven stepper (Siskiyou). […] All recordings were performed at 20 °C.
A symmetrical ionic condition was used throughout. Stock solution with Ca^2+-EGTA contained 150 mM NaCl, 5.99 mM Ca(OH)2, 5 mM EGTA, and 10 mM HEPES at pH 7.40. Stock solution with EGTA contained 150 mM NaCl, 5 mM EGTA, and 10 mM HEPES at pH 7.40. Free Ca^2+ concentrations were adjusted by mixing the stock solutions at the required ratios calculated using the WEBMAXC program (http://web.stanford.edu/~cpatton/webmaxcS.htm). Patch pipettes were filled with the stock solution with Ca^2+-EGTA, which has a free Ca^2+ concentration of 1 mM. 1PBC (ChemBridge) stock was reconstituted in anhydrous DMSO (Sigma-Aldrich) at 100 mM and stored at −20 °C. Working solutions with 1PBC were prepared by serial dilution. Unless otherwise stated, experiments were performed at a saturating Ca^2+ concentration as shown in Supplementary Table 1 and the primary data were corrected for current rundown as described previously[21],[25].
Concentration-response relations, obtained from the ratio of the I-V plots before and after the application of the blocker, were fitted to the Hill equation,1 I/Imax=1/1+IC50/[blocker]^h where I/Imax is the normalized current responses, IC50 defines the concentration at which inhibition is at its half-maximum, and h is the Hill coefficient.

N#Cc1c(C(F)(F)F)cc(O)n2c1nc1ccccc12 [1PBC]
remaining activity at 3 µM (3 µM 1PBC, +80 mV, read-out: I/Imax): 100% | remaining activity at 10 µM (10 µM 1PBC, +80 mV, read-out: I/Imax): 98.7% | remaining activity at 30 µM (30 µM 1PBC, +80 mV, read-out: I/Imax): 101% | remaining activity at 100 µM (100 µM 1PBC, +80 mV, read-out: I/Imax): 100% | Inhibition of the current mediated by the scramblase TMEM16F (within the same concentration range): ineffective
